Measurements taken from US20100062970A1, “SYNTHESIS OF PROPYL PHENOXY ETHERS AND USE AS DELIVERY AGENTS” (Emisphere Technologies Inc., priority 2006, published 2010).

Tested on: whole blood glucose
Assay: In vivo delivery of insulin to fasted rats via oral gavage (whole blood glucose)
Parameters: species or system rat
Details: male Sprague-Dawley rats, delivery agent 200 mg/kg with insulin (human recombinant) 0.5 mg/kg
Description: Insulin (human recombinant) was obtained from ICN Biomedicals (Aurora, Ohio) as a bulk powder. To prepare stock solutions, insulin was dissolved in deionized water (pH˜6.5) to obtain a concentration of 15 mg/ml. Stock solutions were kept frozen at −20° C. in 1.0-ml aliquots until used. For dosing solutions, delivery agent was dissolved in deionized water to obtain a final concentration of 200 mg/ml. The free acid form of delivery agent was converted to the sodium salt by adding one equivalent of sodium hydroxide. Solutions were vortexed, sonicated, and heated, and if necessary, additional sodium hydroxide was added in μl quantities to achieve uniform solubility. Solutions were adjusted to a pH of 3.5-8.5 by the addition of either hydrochloric acid or sodium hydroxide. Insulin stock (typically 66.7 μls) was then added to the delivery agent solution to obtain a final concentration of 0.5 mg/ml. After solubilization and drug addition, solutions were brought to final volume by the addition of deionized water.
Insulin was administered to male, Sprague-Dawley rats either alone or in combination with an Emisphere delivery agent by oral gavage (PO). Rats were fasted for 18-24 hours prior to dosing. For dosing, a Rusch 8 French catheter was cut to 11 cm in length and adapted to fit a 1-ml syringe. The syringe was filled with dosing solution and the catheter was wiped dry of excess solution. The catheter was inserted into the rat mouth and fed down the esophagus (10.0 cm). The dosing solution was delivered by pressing the syringe plunger while holding the rat in an upright position.
During blood sampling, rats were exposed briefly (˜10 sec) to carbon dioxide until prostrate, immediately prior to each sampling time point. For blood sampling, a 77-mm capillary tube was inserted into the retroorbital sinus. Typically, blood samples were collected prior to dosing (time 0) and at 15, 30, 45, and 60 minutes after dosing. Samples were collected into Capiject® tubes (Terumo Corporation, Tokyo, Japan) containing a clot activator (red top, serum separator tubes). Samples were allowed to clot for ˜20 min at 4° C. After clotting, samples were centrifuged at 10,000 rpm for 4 minutes at 6° C. in order to separate the serum. Serum was collected into eppendorf tubes and frozen at −20° C. until assayed.
In order to determine the pharmacodynamic response, a hand-held glucometer (OneTouch Ultra, LifeScan® (Johnson & Johnson, New Brunswick, N.J.)) was used to measure whole blood glucose after administration of insulin or insulin and delivery agent. Samples were collected either from the retroorbital sinus (see Sample collection and handling: Insulin) or from the tail artery (i.e. tail clip). For tail clipping, the tip of the tail was severed approximately 5 mm from the tip using a scalpel blade. After discarding the first drop of blood, a small sample (˜5-10 μl) was touched to the glucometer test strip (OneTouch Ultra, LifeScan) and a blood glucose reading was generated by the meter. For each subsequent sampling time point, the clot formed at the tip of the tail was broken up and a fresh sample was collected. Typically, samples were collected prior to dosing (time 0) and at 15, 30, 45, and 60 minutes after dosing.
Concentrations of insulin were quantified in rat serum using a sandwich-type ELISA (kit; Diagnostic Systems Laboratories, Inc., Webster, Tex.). The calibrated assay range was 12.5-250.0 μlU/mL. Serum from rats was obtained internally from stock animals and used to prepare calibration standards and low and high quality control samples (LQC, HQC). The low and high quality control samples for the second curve were prepared at 30 and 150 μlU/mL, respectively. Calibration standards were prepared fresh daily and quality control samples were stored at a nominal temperature of −20° C. Concentration values (test samples) were read from the standard curve, averaged for each time point (n=5), and plotted as mean serum concentration of insulin (±SEM) versus time. […]

Structure (SMILES) | % Glucose Cmin (Rat) [%]
Cc1cccc(C)c1OCCC(=O)O [Compound 7, 3-(2,6-Dimethyl-phenoxy)-propionic acid] | −42.1
Cc1ccc(C)c(OCCC(=O)O)c1 [Compound 4, 3-(2,5-Dimethyl-phenoxy)-propionic acid] | −39.6
O=C(O)CCOc1ccccc1Cl [Compound 1, 3-2-Chloro-phenoxy-propionic acid] | −47.0
Cc1cccc(OCCC(=O)O)c1C [Compound 5, 3-(2,3-Dimethyl-phenoxy)-propionic acid] | −22.2
Cc1ccccc1OCCC(=O)O [Compound 8, 3-o-Tolyloxy-propionic acid] | −24.2
Cc1ccc(OCCC(=O)O)c(C)c1 [Compound 9, 3-(2,4-Dimethyl-phenoxy)-propionic acid] | −40.3
Cc1cccc(OCCC(=O)O)c1 [Compound 6, 3-m-Tolyloxy-propionic acid] | −29.3
Cc1cc(C)cc(OCCC(=O)O)c1 [Compound 3, 3-(3,5-Dimethyl-phenoxy)-propionic acid] | −16.6
Cc1ccc(OCCC(=O)O)cc1C [Compound 2, 3-(3,4-Dimethyl-phenoxy)-propionic acid] | −48.2
